From patent publication US20260315431A1, “NANOMATERIAL ENCAPSULATED BIOFILM INHIBITORS FOR DENTAL CARIES TREATMENT” (THE UAB RESEARCH FOUNDATION, priority 2023, published 2026)
Like-named read-outs stand apart in the source and are kept apart here.

Assays:
S. mutans Gtfs = assay: Gtf inhibition determined by glucan quantification; format: biochemical, Streptococcus mutans; settings: role: inhibitor
Text: The interspecies co-adherence between S. mutans and other microorganisms in the oral cavity is critical for biofilm formation and cariogenicity. Though the mechanisms of such adhesions and co-aggregations are not fully elucidated, it is believed that the extracellular polysaccharide (EPS) matrix of S. mutans has an important role in this process^49, 50. It is reported that glucans synthesized by Gtfs when incorporated into the tooth pellicle to provide enhanced binding sites for other microorganisms to form stable and persistent microcolonies, which provides mechanical stability to the EPS matrix^50, 51. Therefore, Gtf inhibition assays were performed to assess the ability of HA5 to inhibit the Gtfs and glucan production using a reported procedure and IC50 value was calculated^52.
HA5 is a polyhydroxy compound that contains a Michael acceptor functionality which raises concerns about non-specific and covalent binding.
Gtf inhibition determined by glucan quantification assays. Overnight cultures of S. mutans UA159 were centrifuged (6500 rpm, 4° C., 10 min) to remove cells. Supernatant was mixed with ethanol (1:1) and incubated at −80° C. for 1 h. The precipitated Gtfs were palleted using centrifugation and resuspended in chemically defined media (CDM) 10 μL of Gtfs suspended in CDM were assayed on Ibidi slides with varying concentrations of inhibitor, 1% sucrose, 1% DMSO and 1 μM Cascade blue dye in CDM. The slides were then incubated at 37° C. with 5% CO2 for 16 h after which, the wells of Ibidi slides were gently rinsed with 1×PBS and treated with 1×PBS for fluorescence microscopy imaging. The images obtained were processed in ImageJ to quantify glucans and graphed in GraphPad Prism.
Gtf inhibition assays were performed to assess the ability of HA6 to inhibit the Gtfs and glucan production using a reported procedure and IC50 value was calculated^[44, 45] Overnight cultures of S. mutans UA159 were centrifuged (6500 rpm, 4° C., 10 min) to remove the cells. Supernatant was mixed with ethanol (1:1) and incubated at −80° C. for 1 h. The precipitated Gtfs were palleted using centrifugation and resuspended in CDM (1 mL). 10 μL of Gtfs suspension in CDM was assayed on Ibidi slides with varying concentrations of PEHA5 or HA6, 1% sucrose, 1% DMSO and 1 μM Cascade blue dextran conjugated dye in CDM. The slides were then incubated at 37° C. with 5% CO2 for 16 h after which, the wells of Ibidi slides were gently rinsed with 1×PBS and imaged using fluorescence microscopy. The images obtained were processed in ImageJ to quantify glucans and graphed in GraphPad Prism 10.0.2.

S. mutans UA159 = assay: Gnotobiotic rat model of dental caries (PEHA5 / HA5 study, Example 2); format: in vivo, gnotobiotic rats infected with S. mutans UA159; set-up: key to Buccal Mean Caries Scores (±SEM) E / Buccal Mean Caries Scores (±SEM) Ds / Buccal Mean Caries Scores (±SEM) Dm / Buccal Mean Caries Scores (±SEM) Dx / Sulcal Mean Caries Scores (± SEM) E / Sulcal Mean Caries Scores (± SEM) Ds / Sulcal Mean Caries Scores (± SEM) Dm / Sulcal Mean Caries Scores (± SEM) Dx / Proximal Mean Caries Scores (± SEM) E / Proximal Mean Caries Scores (± SEM) Ds: caries scored by the Keyes method; settings: 100 μM
Text: (§1) The effect of PEHA5 on S. mutans colonization and virulence was compared side-by-side with HA5 using a well-established gnotobiotic rat model of dental caries^[50-54]. A (vehicle+infection only) group was included as a negative control. All rats from the experimental groups and from the control group were colonized with S. mutans UA159. […] Similar reductions in caries scores were also observed in sulcal caries scores and proximal caries scores (Table 5). We were unable to record the effect of the treatment on dentinal moderate (Dm) and dentinal extensive (Dx) scores in the proximal area due to the absence of dentinal lesions in the control and treated groups.
We used Fischer 344 rats that were bred and maintained in trexler isolators for this experiment. Male and female rat pups were removed from isolators at 20 days of age and randomly assigned into treatment groups of 5 rats/group in cages with filter tops. Rats were then infected with S. mutans UA159 strain by oral swabbing daily for four consecutive days with a fresh overnight culture of S. mutans UA159. Rats were provided with caries promoting Teklad Diet 305 containing […] (Harlan Laboratories, Inc., Indianapolis, IN) and sterile drinking water ad libitum. Oral swabs were taken 5 days post-infection and plated on Todd Hewitt (TH) agar plates and incubated at 37° C. in an environment of 5% CO2 in the air to confirm colonization. Rats were weighed at weaning and then weekly throughout the experiment. One-week post-infection, the molars of the rats were brushed twice daily for 4 weeks with the test compounds using camel-hair brushes. Four treatment groups used in this study were: 1) HA5 (100 μM); 2) […] (100 μM); 3) NaF (250 ppm); and 4) infected untreated rats. Drinking water was withheld for 60 min following each treatment with the compound. Animals were weighed at weaning and at the termination of the experiment. On day 60, the rats were sacrificed using CO2 followed by cervical dislocation or bilateral thoracotomy. The mandibles were surgically removed and cleaned of excess tissue to assess the level of bacteria present and the extent of caries formation. The right mandible from each rat was placed in a tube containing phosphate buffer (3 mL), placed on ice and sonicated (10 sec) to release bacteria from the molars. Each sample was serially diluted, plated on blood (BAP) and mitis-salivarius (MS) agar plates and incubated in an environment of 5% CO2 in air at 37° C. to quantify the level of total bacteria and S. mutans present in the plaque. The right and left mandibles from each rat were then placed in 95% ethanol for 24 h. The mandibles will be cleaned and stained overnight with murexide solution. After drying, the mandibles were sectioned and scored for caries activity using the Keyes method Caries scores were recorded for the buccal, sulcal and proximal molar surfaces individually so that differences among the surfaces can be distinguished. Statistical significance in the mean caries scores, colony-forming units (CFU)/mandible and body weights between groups of rats were determined by one-way analysis of variance (ANOVA) with the Tukey-Kramer multiple comparison test using the InStat program (GraphPad Prism 10.0.2.). When determining the statistical significance between the two groups, an unpaired t-test was applied. Differences between groups were considered significant at a P-value<0.05.

[1] = Body weight of animals, PEHA5 / HA5 study; format: in vivo, gnotobiotic rats; settings: 100 μM
Text: as §1
We used Fischer 344 rats that were bred and maintained in trexler isolators for this experiment. Male and female rat pups were removed from isolators at 20 days of age and randomly assigned into treatment groups of 5 rats/group in cages with filter tops. […] Each sample was serially diluted, plated on blood (BAP) and mitis-salivarius (MS) agar plates and incubated in an environment of 5% CO2 in air at 37° C. to quantify the level of total bacteria and S. mutans present in the plaque. […] After drying, the mandibles were sectioned and scored for caries activity using the Keyes method Caries scores were recorded for the buccal, sulcal and proximal molar surfaces individually so that differences among the surfaces can be distinguished. […]

SMILES: O=C1/C(=C/c2cc(O)c(O)cc2O)Oc2ccccc21 [HA5, 2-[(2′,4′,5′-Trihydroxyphenyl)methylidene]-2,3-dihydro-1-benzofuran-3-one]
- IC50 (S. mutans Gtfs; 1% sucrose, 1% DMSO, no BME or Triton-X-100, read-out: Gtf inhibition (glucan production) IC50): 10.6 µM
- IC50 (S. mutans Gtfs; no BME, unit M, read-out: Gtf inhibition (glucan production) IC50): 10.6 µM
- IC50 (S. mutans Gtfs; with beta-mercaptoethanol 1 mM, read-out: Gtf inhibition IC50 in the presence of BME): 7.84 µM
- IC50 (S. mutans Gtfs; with detergent Triton-X-100, read-out: Gtf inhibition IC50 in the presence of Triton-X-100): 5.16 µM
- effect on bacterial colonization (S. mutans UA159; 4-week treatment): did not affect bacterial colonization significantly
- reduction in caries scores (S. mutans UA159; 4-week treatment): significant reductions in buccal caries scores
- CFU/mL BAP (S. mutans UA159; Blood agar plate): 5.2 ± 1.4 CFU/mL (×10^5)
- CFU/mL MS (S. mutans UA159; Mitis-Salivarius agar): 5.5 ± 2.6 CFU/mL (×10^5)
- Buccal Mean Caries Scores (±SEM) Dx (S. mutans UA159; dentinal extensive, 4 weeks): 1.4 ± 0.4
- Sulcal Mean Caries Scores (± SEM) Dx (S. mutans UA159; dentinal extensive, 4 weeks): 4.8 ± 0.9
- Buccal Mean Caries Scores (±SEM) Dm (S. mutans UA159; dentinal moderate, 4 weeks): 2.8 ± 0.5
- Sulcal Mean Caries Scores (± SEM) Dm (S. mutans UA159; dentinal moderate, 4 weeks): 9.4 ± 0.5
- Buccal Mean Caries Scores (±SEM) Ds (S. mutans UA159; dentinal slight, 4 weeks): 6.4 ± 1.0
- Proximal Mean Caries Scores (± SEM) Ds (S. mutans UA159; dentinal slight, 4 weeks): 3.4 ± 0.6
- Sulcal Mean Caries Scores (± SEM) Ds (S. mutans UA159; dentinal slight, 4 weeks): 15.0 ± 0.9
- Buccal Mean Caries Scores (±SEM) E (S. mutans UA159; enamel, 4 weeks): 9.0 ± 0.6
- Proximal Mean Caries Scores (± SEM) E (S. mutans UA159; enamel, 4 weeks): 5.2 ± 0.5
- Sulcal Mean Caries Scores (± SEM) E (S. mutans UA159; enamel, 4 weeks): 20.6 ± 0.8
- Weight [1]: 145 ± 14 g
- weight loss ([1]; 4-week treatment): did not experience any weight loss
